Legend:
[1] = molecular target: T1, XR (xylose reductase, xyl1) (Trichoderma reesei, UniProt Q876L8); test: NADPH oxidation at […] nm in cell-free extract of expressing yeast; assay type: biochemical; conditions: 50 mM xylose, 0.34 mM NADPH, 25 mM potassium phosphate pH 7.0, 30 C
T1 construct: cell-free extract
T1 sequence (Q876L8 1-324): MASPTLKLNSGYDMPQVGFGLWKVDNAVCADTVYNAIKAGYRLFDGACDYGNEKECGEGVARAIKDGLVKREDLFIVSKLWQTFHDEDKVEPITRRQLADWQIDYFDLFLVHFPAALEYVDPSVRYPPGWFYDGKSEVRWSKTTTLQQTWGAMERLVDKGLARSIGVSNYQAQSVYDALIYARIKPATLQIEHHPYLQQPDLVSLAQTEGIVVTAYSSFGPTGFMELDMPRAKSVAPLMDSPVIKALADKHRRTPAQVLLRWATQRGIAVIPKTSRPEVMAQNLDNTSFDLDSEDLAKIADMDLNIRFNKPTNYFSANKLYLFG

[2] = molecular target: T2, XDH (xylitol dehydrogenase, xdh1) (Trichoderma reesei, UniProt Q876R2); test: NAD+ reduction at […] nm in cell-free extract of expressing yeast; assay type: biochemical; conditions: 0.15 M xylitol, 0.4 mM NAD+, 25 mM potassium phosphate pH 7.0
T2 construct: cell-free extract
T2 sequence (Q876R2 1-363): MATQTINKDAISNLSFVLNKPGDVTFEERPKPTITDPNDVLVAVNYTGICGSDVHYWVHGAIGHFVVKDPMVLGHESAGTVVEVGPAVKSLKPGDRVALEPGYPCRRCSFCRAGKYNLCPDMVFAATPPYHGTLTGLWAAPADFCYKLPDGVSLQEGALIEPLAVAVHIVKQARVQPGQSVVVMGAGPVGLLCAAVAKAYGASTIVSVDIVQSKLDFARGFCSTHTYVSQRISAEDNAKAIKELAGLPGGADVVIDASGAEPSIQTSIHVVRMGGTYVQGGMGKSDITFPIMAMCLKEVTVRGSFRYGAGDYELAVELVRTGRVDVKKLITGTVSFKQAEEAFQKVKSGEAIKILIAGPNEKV

SMILES | NADPH oxidation at 340 nm in cell-free extract of expressing yeast [1] | NAD+ reduction at 340 nm in cell-free extract of expressing yeast [2]
NC(=O)C1=CN([C@@H]2O[C@H](COP(=O)(O)OP(=O)(O)OC[C@H]3O[C@@H](n4cnc5c(N)ncnc54)[C@H](OP(=O)(O)O)[C@@H]3O)[C@@H](O)[C@H]2O)C=CC1 [NADPH] | measuring the oxidation of the reduced form of nicotinamide adenine dinucleotide phosphate (NADPH) | 
NC(=O)c1ccc[n+]([C@@H]2O[C@H](COP(=O)(O)OP(=O)(O)OC[C@H]3O[C@@H](n4cnc5c(N)ncnc54)[C@H](O)[C@@H]3O)[C@@H](O)[C@H]2O)c1 [NAD^+] |  | measuring the reduction of nicotinamide adenine dinucleotide (NAD^+) to NADH

Reference: publication PMC4417197, “Engineering Saccharomyces pastorianus for the co-utilisation of xylose and cellulose from biomass” (Microbial Cell Factories, 2015)
